Results published in patent US20030166932A1 (priority 2002, published 2003).

Columns and labels:
RARα = biological target: T1, RARα (Homo sapiens, UniProt P10276); experiment: chimeric receptor transactivation assay; format: cell-based
T1 sequence (P10276 1-462): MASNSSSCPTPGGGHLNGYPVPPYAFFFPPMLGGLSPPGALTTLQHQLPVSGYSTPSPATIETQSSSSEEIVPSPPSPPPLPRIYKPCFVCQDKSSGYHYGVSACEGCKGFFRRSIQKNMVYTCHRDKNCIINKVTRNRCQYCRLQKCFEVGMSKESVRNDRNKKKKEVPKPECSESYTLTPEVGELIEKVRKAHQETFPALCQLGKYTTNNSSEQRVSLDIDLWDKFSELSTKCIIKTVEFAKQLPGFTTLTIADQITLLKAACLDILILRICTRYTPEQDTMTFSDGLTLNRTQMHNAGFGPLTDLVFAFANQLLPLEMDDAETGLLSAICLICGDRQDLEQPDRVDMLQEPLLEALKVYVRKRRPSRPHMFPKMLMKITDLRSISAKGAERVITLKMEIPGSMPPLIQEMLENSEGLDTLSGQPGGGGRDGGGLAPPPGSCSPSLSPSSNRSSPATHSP
Source text: (§1) The specification of U.S. Pat. No. 5,455,265 is hereby expressly incorporated by reference.

RXRβ [1] = biological target: T2, RXRβ (UniProt P28704); experiment: holoreceptor transactivation assay; format: cell-based; conditions: for EC50: NA = Not Active, read-out: RXR Trans. EC50 (nM) β; for % efficacy, RXR Trans. β: relative to 10^−6 M AGN 194204
T2 sequence (P28704 1-520): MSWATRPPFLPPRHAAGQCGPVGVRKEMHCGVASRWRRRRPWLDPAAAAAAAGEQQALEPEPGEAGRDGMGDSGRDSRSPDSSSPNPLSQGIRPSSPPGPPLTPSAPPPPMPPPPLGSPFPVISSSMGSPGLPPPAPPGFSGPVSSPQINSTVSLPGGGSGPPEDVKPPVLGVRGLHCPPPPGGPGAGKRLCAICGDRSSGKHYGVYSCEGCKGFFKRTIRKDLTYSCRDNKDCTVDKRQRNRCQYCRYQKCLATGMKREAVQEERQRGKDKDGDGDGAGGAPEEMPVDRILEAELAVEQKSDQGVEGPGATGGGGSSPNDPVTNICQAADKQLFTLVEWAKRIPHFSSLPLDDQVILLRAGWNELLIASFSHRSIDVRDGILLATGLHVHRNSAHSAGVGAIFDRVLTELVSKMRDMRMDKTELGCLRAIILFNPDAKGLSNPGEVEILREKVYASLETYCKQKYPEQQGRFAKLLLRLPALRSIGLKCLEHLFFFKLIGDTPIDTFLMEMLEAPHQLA
Source text: (§2) The results obtained in this assay are expressed in EC50 numbers, as they are also in the chimeric receptor transactivation assay. The results of ligand binding assay are expressed in Kd numbers.
(§3) Particularly, the transactivation data pertaining to RAR receptors were obtained in the chimeric assay, and the data pertaining to transactivation of RXR receptors were obtained in the holoreceptor transactivation assay.

RXRγ [2] = biological target: T3, RXRγ (UniProt P28705); experiment: holoreceptor transactivation assay; format: cell-based; conditions: for EC50: NA = Not Active, read-out: RXR Trans. EC50 (nM) Y; for % efficacy, RXR Trans. Y: relative to 10^−6 M AGN 194204
T3 sequence (P28705 1-463): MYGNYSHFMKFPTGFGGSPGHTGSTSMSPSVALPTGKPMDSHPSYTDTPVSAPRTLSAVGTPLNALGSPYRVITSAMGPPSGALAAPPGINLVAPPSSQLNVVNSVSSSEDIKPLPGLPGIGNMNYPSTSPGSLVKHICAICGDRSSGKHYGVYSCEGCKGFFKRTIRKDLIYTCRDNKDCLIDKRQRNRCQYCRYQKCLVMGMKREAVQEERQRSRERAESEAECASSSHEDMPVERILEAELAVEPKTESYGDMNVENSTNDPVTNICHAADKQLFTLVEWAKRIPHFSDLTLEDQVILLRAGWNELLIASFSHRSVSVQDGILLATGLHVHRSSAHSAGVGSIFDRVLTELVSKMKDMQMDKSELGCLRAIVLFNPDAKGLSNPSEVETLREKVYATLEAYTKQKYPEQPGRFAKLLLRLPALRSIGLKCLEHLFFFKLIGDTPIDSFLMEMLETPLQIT
Source text: as §2, §3

RARβ [3] = biological target: T4, RARβ (Homo sapiens, UniProt P10826); experiment: ligand binding assay; conditions: read-out: RAR Bind. Ki (nM) β
T4 sequence (P10826 1-455): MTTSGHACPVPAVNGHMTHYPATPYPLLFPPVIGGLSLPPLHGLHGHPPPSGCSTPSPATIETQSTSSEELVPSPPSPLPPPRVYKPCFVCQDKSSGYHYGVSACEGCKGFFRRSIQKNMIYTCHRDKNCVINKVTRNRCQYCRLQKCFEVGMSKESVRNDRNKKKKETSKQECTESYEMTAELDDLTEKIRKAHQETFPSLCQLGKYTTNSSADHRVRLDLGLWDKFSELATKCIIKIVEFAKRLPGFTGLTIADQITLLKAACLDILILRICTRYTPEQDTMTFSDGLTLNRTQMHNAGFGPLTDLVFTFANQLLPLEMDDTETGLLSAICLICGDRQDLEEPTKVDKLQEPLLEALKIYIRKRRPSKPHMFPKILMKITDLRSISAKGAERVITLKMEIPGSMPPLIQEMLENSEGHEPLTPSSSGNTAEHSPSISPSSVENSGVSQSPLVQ
Source text: as §2, §3

RARγ [4] = biological target: T5, RARγ (Homo sapiens, UniProt P13631); experiment: ligand binding assay; conditions: read-out: RAR Bind. Ki (nM) Y
T5 sequence (P13631 1-454): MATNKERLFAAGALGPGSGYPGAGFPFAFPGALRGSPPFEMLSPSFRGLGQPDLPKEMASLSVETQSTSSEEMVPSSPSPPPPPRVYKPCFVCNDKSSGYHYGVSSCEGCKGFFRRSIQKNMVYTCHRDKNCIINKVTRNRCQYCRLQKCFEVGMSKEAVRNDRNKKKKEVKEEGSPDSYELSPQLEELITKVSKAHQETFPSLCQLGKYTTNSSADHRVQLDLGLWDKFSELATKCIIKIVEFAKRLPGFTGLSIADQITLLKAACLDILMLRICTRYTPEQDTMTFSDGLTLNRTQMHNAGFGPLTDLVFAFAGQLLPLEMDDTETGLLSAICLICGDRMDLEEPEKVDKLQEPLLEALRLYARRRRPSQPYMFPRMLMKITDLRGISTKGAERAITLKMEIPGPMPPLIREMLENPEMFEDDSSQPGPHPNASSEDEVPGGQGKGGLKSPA
Source text: as §2, §3

RXRβ [5] = biological target: T2, RXRβ; experiment: ligand binding assay; conditions: read-out: RXR Bind Ki (nM) β
Source text: as §2, §3

RXRα [6] = biological target: T6, RXRα (Homo sapiens, UniProt P19793); experiment: ligand binding assay
T6 sequence (P19793 1-462): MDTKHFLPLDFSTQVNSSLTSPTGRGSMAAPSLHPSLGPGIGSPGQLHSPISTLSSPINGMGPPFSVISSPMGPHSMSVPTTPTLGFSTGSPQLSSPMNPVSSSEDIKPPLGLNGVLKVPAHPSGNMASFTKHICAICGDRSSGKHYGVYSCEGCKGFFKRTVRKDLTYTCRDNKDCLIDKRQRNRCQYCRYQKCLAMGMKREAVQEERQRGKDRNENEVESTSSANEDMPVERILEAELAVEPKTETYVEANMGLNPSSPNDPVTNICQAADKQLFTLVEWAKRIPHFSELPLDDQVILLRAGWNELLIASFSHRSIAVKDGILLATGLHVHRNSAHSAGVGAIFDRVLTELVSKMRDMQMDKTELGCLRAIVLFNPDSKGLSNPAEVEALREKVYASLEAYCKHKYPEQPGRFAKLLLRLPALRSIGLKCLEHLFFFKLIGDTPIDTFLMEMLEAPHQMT
Source text: as §2, §3

RXRα [7] = biological target: T6, RXRα; experiment: holoreceptor transactivation assay; conditions: for Emax: read-out: % efficacy, RXR Trans. α
Source text: as §2, §3

RXRγ [8] = biological target: T3, RXRγ; experiment: ligand binding assay; conditions: read-out: RXR Bind Ki (nM) Y
RARβ [9] = biological target: T7, RARβ (Homo sapiens, UniProt P10826); experiment: cell-based; format: cell-based; conditions: for EC50: NA = Not Active, read-out: RAR Trans. EC50 (nM) β; for Emax: relative to 10^−6 M ATRA, read-out: % efficacy, RAR Trans. β
T7 sequence (P10826 154-455): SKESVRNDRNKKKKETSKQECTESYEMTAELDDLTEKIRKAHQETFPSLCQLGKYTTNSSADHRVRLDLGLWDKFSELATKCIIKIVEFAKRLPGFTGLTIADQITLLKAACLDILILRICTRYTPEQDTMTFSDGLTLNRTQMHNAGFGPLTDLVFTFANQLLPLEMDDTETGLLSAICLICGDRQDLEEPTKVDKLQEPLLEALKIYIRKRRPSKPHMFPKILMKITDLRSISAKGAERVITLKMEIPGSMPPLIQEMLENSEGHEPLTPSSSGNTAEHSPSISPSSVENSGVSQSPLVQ
Source text: as §1

RARγ [10] = biological target: T8, RARγ (Homo sapiens, UniProt P13631); format: cell-based
T8 sequence (P13631 156-454): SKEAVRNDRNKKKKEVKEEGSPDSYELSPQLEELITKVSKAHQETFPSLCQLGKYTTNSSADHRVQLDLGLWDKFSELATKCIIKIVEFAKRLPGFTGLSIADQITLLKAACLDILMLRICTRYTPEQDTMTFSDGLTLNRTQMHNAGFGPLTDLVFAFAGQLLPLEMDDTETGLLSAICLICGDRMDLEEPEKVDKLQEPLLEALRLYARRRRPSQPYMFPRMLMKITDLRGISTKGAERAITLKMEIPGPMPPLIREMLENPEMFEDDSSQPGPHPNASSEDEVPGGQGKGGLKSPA
Source text: as §1

| EC50 (RARα; NA = Not Active, read-out: RAR Trans. EC50 (nM) α) | Emax (RARα; relative to 10^−6 M ATRA, read-out: % efficacy, RAR Trans. α) | EC50 (RXRβ [1]) | % efficacy, RXR Trans. β (RXRβ [1]) | EC50 (RXRγ [2]) | % efficacy, RXR Trans. Y (RXRγ [2]) | Ki (RARβ [3]) | Ki (RARγ [4]) | Ki (RXRβ [5]) | Ki (RXRα [6]) | EC50 (RXRα [7]) | Emax (RXRα [7]) | Ki (RXRγ [8]) | EC50 (RARβ [9]) | Emax (RARβ [9]) | EC50 (RARγ [10]; NA = Not Active, read-out: RAR Trans. EC50 (nM) Y) | % efficacy, RAR Trans. Y (RARγ [10]; relative to 10^−6 M ATRA) | SMILES |
| --- | --- | --- | --- | --- | --- | --- | --- | --- | --- | --- | --- | --- | --- | --- | --- | --- | --- |
| 0.5 nM | 10% | 4 nM | (84) % | 0.5 nM | (90) % | 1300 nM | 4000 nM | 30 nM | 7 nM | 0.3 nM | 85% | – | – | – | – | – | CCN(c1ccc(C(=O)O)cc1)c1cc2c(cc1C)C(C)(C)CC=C2C(C)(C)C [Compound 26, 4-[Ethyl(8-t-butyl-3,5,5-trimethyl-5,6-dihydronaphthalen-2-yl)amino]benzoic acid] |
| – | – | 41 nM | (100) % | 5 nM | (120) % | > 10000 nM | 3500 nM | 12 nM | 3 nM | 4 nM | 114% | 21 nM | – | – | – | – | CCN(c1ccc(C(=O)O)cc1)c1ccc2c(c1)C(C(C)(C)C)=CCC2(C)C [Compound 88] |
| – | – | 76 nM | (110) % | 12 nM | (102) % | > 10000 nM | > 10000 nM | 84 nM | 39 nM | 12 nM | 112% | 68 nM | > 1000 nM | 15% | > 1000 nM | (5) % | C=CCN(c1ccc(C(=O)O)cc1)c1ccc2c(c1)C(C(C)(C)C)=CCC2(C)C [Compound 90, 4-[(8-t-Butyl-5,5-dimethyl-5,6-dihydronaphthalen-2-yl)(prop-2-en-yl)lamino]-benzoic acid] |
| – | – | 8 nM | (63) % | 2 nM | (101) % | 7500 nM | > 10000 nM | 15 nM | 5 nM | 0.5 nM | 64% | 37 nM | – | – | – | – | CCN(c1ccc(C(=O)O)cc1)c1cc2c(cc1OC)C(C)(C)CC=C2C(C)C [Compound 148, 4-[Ethyl-(8-isopropyl-3-methoxy-5,5-dimethyl-5,6-dihydronaphthalen-2-yl)amino]benzoic acid] |
| – | – | – | – | – | – | 1200 nM | 13000 nM | 46 nM | 8 nM | – | – | 99 nM | > 1000 nM | 32% | – | – | CCCN(c1ccc(C(=O)O)cc1)c1cc2c(cc1OCc1ccccc1)C(C)(C)CC=C2C(C)C [Compound 157] |
| – | – | 13 nM | (112) % | 2 nM | (118) % | 6000 nM | > 10000 nM | 4 nM | 0.7 nM | 2 nM | 109% | 6 nM | – | – | – | – | CCN(c1ccc2c(c1)C(C(C)C)=CCC2(C)C)c1ccc(C(=O)O)cn1 [Compound 172, 6-[Ethyl-(8-isopropyl5,5-dimethyl-5,6-dihydro-naphthalen-2-yl)-amino]-nicotinic acid] |

| SMILES | EC50 (RARα; NA = Not Active, read-out: RAR Trans. EC50 (nM) α) | Emax (RARα; relative to 10^−6 M ATRA, read-out: % efficacy, RAR Trans. α) | EC50 (RXRβ [1]) | % efficacy, RXR Trans. β (RXRβ [1]) | EC50 (RXRγ [2]) | % efficacy, RXR Trans. Y (RXRγ [2]) | Ki (RARβ [3]) | Ki (RARγ [4]) | Ki (RXRβ [5]) | Ki (RXRα [6]) | EC50 (RXRα [7]) | Emax (RXRα [7]) | Ki (RXRγ [8]) | EC50 (RARβ [9]) | Emax (RARβ [9]) | EC50 (RARγ [10]; NA = Not Active, read-out: RAR Trans. EC50 (nM) Y) | % efficacy, RAR Trans. Y (RARγ [10]; relative to 10^−6 M ATRA) |
| --- | --- | --- | --- | --- | --- | --- | --- | --- | --- | --- | --- | --- | --- | --- | --- | --- | --- |
| CCN(c1ccc2c(c1)C(C)=CCC2(C)C)c1ccc(C(=O)O)cn1 [Compound 170, 6-[Ethyl-(5,5,8-trimethyl-5,6-dihydro-naphthalen-2-yl)-amino]-nicotinic acid] | – | – | 379 nM | (110) % | 67 nM | (127) % | > 10000 nM | > 10000 nM | 190 nM | 64 nM | 33 nM | 113% | 61 nM | – | – | – | – |
